We go through seven compounds from ChEMBL document CHEMBL3137667, “[Drug-induced liver injury; fourteenth updated edition of the bibliographic database of liver injuries and related drugs]” (Gastroenterol Clin Biol, 2004).

For data set [1] the following is noted: human.
For data set [2] the following is noted: human, serum.
The conditions of data set [3]: human, serum, 4383 h.
The conditions of data set [4]: human. This is another data set of the same source.
Data set [5] is described as follows: Comments (NB not yet translated). [column 'COMMENTAIRES' in source]. The settings on record: human.
For data set [6] the following is noted: human. This is another data set of the same source.
For data set [7] the following is noted: human, serum. The source holds these as a separate data set.
For data set [8] the following is noted: human. This is another data set of the same source.
A short description of data set [9]: Highest frequency of moderate liver toxicity observed during clinical trials, expressed as a percentage. [column '% BIOL' in source]. The settings on record: human.
For data set [10] the following is noted: human. This is another data set of the same source.
The conditions of data set [11]: human. The source holds these as a separate data set.
For data set [12] the following is noted: human. This is another data set of the same source.
For data set [13] the following is noted: human. The source holds these as a separate data set.
Data set [14] is described as follows: Times to onset, minimal and maximal, observed in the indexed observations. [column 'DELAI' in source]. The settings on record: human.
Data set [15] can be described thus: Highest frequency of acute liver toxicity observed during clinical trials, expressed as a percentage. [column '% AIGUE' in source]. The settings on record: human.
The conditions of data set [16]: human. This is another data set of the same source.
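For Hepatotoxicity (association with vascular disease) in this document: count of indexed literature references reporting vascular liver injury in humans, e.g. peliosis hepatitis, hepatic veno-occlusive disease or Budd-Chiari syndrome.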
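For Hepatotoxicity (benign tumour) in this document: value is a count of indexed literature references citing a benign tumour confirmed by histopathology.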
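For Hepatotoxicity (choleostasis) in this document: human cholestatic liver injury, shown by histopathology or by peak ALT or AST elevation over alkaline phosphatase ratio below 2, value counts indexed literature reports.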
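For Hepatotoxicity (chronic liver disease) in this document: chronic liver injury confirmed by histopathology or persistently raised serum aminotransferase activity beyond 6 months, value given as the count of indexed literature references.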
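For Hepatotoxicity (cirrhosis) in this document: value is a count of indexed literature references reporting cirrhosis confirmed by histopathology.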
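For Hepatotoxicity (cytolytic) in this document: human cytolytic liver injury, shown by histopathology or by a ratio above 5 of peak ALT or AST elevation to alkaline phosphatase elevation, value counts indexed references.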
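For Hepatotoxicity (granulomatous hepatitis) in this document: value is a count of indexed literature references reporting granulomatous liver disease confirmed by histopathology.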
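For Hepatotoxicity (malignant tumour) in this document: malignant tumour confirmed by histopathology, value gives the count of indexed literature references reporting it.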
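For Hepatotoxicity (severe hepatitis) in this document: human clinical data: severe hepatitis, meaning potentially life-threatening liver failure or clinically observed cases, the value counts how many indexed literature references report it.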
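For Hepatotoxicity (steatosis) in this document: steatosis confirmed by histopathology, value is the count of indexed references.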

As to `Cc1ccc(C(=O)Nc2ccc(S(=O)(=O)O)c3cc(S(=O)(=O)O)cc(S(=O)(=O)O)c23)cc1NC(=O)c1cccc(NC(=O)Nc2cccc(C(=O)Nc3cc(C(=O)Nc4ccc(S(=O)(=O)O)c5cc(S(=O)(=O)O)cc(S(=O)(=O)O)c45)ccc3C)c2)c1` [SURAMIN], in data set [1], the “Hepatotoxicity (benign tumour)” value is on record as 0. The “Hepatotoxicity (acute)” value in [2] is listed as 3; in [15], 6.3%. In addition, the “Hepatotoxicity (chronic liver disease)” value in data set [3] was determined as 0. Further, the “Hepatotoxicity (cirrhosis)” value in data set [4] is 0. In addition, the “Hepatotoxicity (comment)” value in [5] is reported as “REACTIVATION_HVB”. Further, the “Hepatotoxicity (choleostasis)” value in [6] worked out at 0. Also, the “Hepatotoxicity (moderate)” value in [7] is 11; in data set [9], 63%. In addition, in [8], the “Hepatotoxicity (granulomatous hepatitis)” value worked out at 0. Further, the “Hepatotoxicity (association with vascular disease)” value in [10] is recorded as 0. Moreover, the “Hepatotoxicity (severe hepatitis)” value in [11] amounted to 1. Besides, in data set [12], the “Hepatotoxicity (malignant tumour)” value is 0. Further, the “Hepatotoxicity (cytolytic)” value in data set [13] is given as 1. Further, in data set [14], the “Hepatotoxicity (time to onset)” value was determined as 1 week - 8 months. The “Hepatotoxicity (steatosis)” value in [16] is reported as 0.
For the compound `CCOC(=O)C1=C(C)NC(C)=C(C(=O)OC)C1c1cccc([N+](=O)[O-])c1` (configuration not stated) [NITRENDIPINE], the “Hepatotoxicity (benign tumour)” value in [1] was 0. Besides, the “Hepatotoxicity (acute)” value in [2] turned out to be 1; in data set [15], 0%. Also, the “Hepatotoxicity (chronic liver disease)” value in data set [3] is given as 0. Moreover, the “Hepatotoxicity (cirrhosis)” value in data set [4] was 0. In [5], the “Hepatotoxicity (comment)” value is “AC_ANTI-N”. Further, in data set [6], the “Hepatotoxicity (choleostasis)” value is 0. For the same compound, the “Hepatotoxicity (moderate)” value in data set [7] was 2; in data set [9], 18.2%. The “Hepatotoxicity (granulomatous hepatitis)” value in data set [8] was 0. In addition, the “Hepatotoxicity (association with vascular disease)” value in data set [10] worked out at 0. Also, in data set [11], the “Hepatotoxicity (severe hepatitis)” value is listed as 0. Also, the “Hepatotoxicity (malignant tumour)” value in [12] was determined as 0. In addition, in data set [13], the “Hepatotoxicity (cytolytic)” value turned out to be 0. Further, the “Hepatotoxicity (time to onset)” value in data set [14] is 3 weeks. Also, in [16], the “Hepatotoxicity (steatosis)” value worked out at 0.
As for `CC1COc2c(N3CCN(C)CC3)c(F)cc3c(=O)c(C(=O)O)cn1c23` (configuration not stated) [OFLOXACIN], the “Hepatotoxicity (benign tumour)” value in [1] stood at 0. Further, the “Hepatotoxicity (acute)” value in data set [2] came out at 11; in [15], 18.2%. In addition, in data set [3], the “Hepatotoxicity (chronic liver disease)” value is reported as 0. Further, the “Hepatotoxicity (cirrhosis)” value in data set [4] came out at 0. Besides, the “Hepatotoxicity (comment)” value in data set [5] is on record as “I/PYRAZINAMIDE”. Further, the “Hepatotoxicity (choleostasis)” value in data set [6] was 5. Further, the “Hepatotoxicity (moderate)” value turned out to be 61 in data set [7] and 42.2% in data set [9]. The “Hepatotoxicity (granulomatous hepatitis)” value in data set [8] was found to be 1. The “Hepatotoxicity (association with vascular disease)” value in data set [10] amounted to 0. The “Hepatotoxicity (severe hepatitis)” value in data set [11] came to 2. The “Hepatotoxicity (malignant tumour)” value in data set [12] is reported as 0. Also, the “Hepatotoxicity (cytolytic)” value in [13] turned out to be 6. Also, in data set [14], the “Hepatotoxicity (time to onset)” value turned out to be 4 days - 26 weeks. Moreover, the “Hepatotoxicity (steatosis)” value in data set [16] was determined as 0.
Take GONADOTROPIN, SERUM: the “Hepatotoxicity (benign tumour)” value in [1] is on record as 1. The “Hepatotoxicity (acute)” value in [2] amounted to 1; in data set [15] it was 0%. In data set [3], the “Hepatotoxicity (chronic liver disease)” value is 0. In [4], the “Hepatotoxicity (cirrhosis)” value worked out at 0. Besides, the “Hepatotoxicity (comment)” value in data set [5] was “HNF”. In addition, the “Hepatotoxicity (choleostasis)” value in data set [6] is recorded as 0. The “Hepatotoxicity (moderate)” value in data set [7] was determined as 0; in data set [9], 0%. Also, in data set [8], the “Hepatotoxicity (granulomatous hepatitis)” value is given as 0. In addition, the “Hepatotoxicity (association with vascular disease)” value in data set [10] is reported as 0. Moreover, the “Hepatotoxicity (severe hepatitis)” value in [11] is listed as 0. Also, the “Hepatotoxicity (malignant tumour)” value in data set [12] amounted to 0. Also, the “Hepatotoxicity (cytolytic)” value in [13] was found to be 1. The “Hepatotoxicity (time to onset)” value in [14] is on record as 39 days - 6 months. Further, the “Hepatotoxicity (steatosis)” value in data set [16] came to 0.
Turning to `C1CCC(C(CC2CCCCN2)C2CCCCC2)CC1` (configuration not stated) [PERHEXILINE], in [1], the “Hepatotoxicity (benign tumour)” value is 0. In addition, the “Hepatotoxicity (acute)” value is reported as 11 in [2] and 0% in data set [15]. In data set [3], the “Hepatotoxicity (chronic liver disease)” value came out at 1. Besides, the “Hepatotoxicity (cirrhosis)” value in data set [4] was 22. The “Hepatotoxicity (comment)” value in [5] is “I/AMIODARONE/BEZAFIBRATE/PAROXETINE INCLUSIONLAMELLAIRE”. In addition, the “Hepatotoxicity (choleostasis)” value in data set [6] amounted to 2. Also, the figures for the “Hepatotoxicity (moderate)” value in data set [7] and in data set [9] were 18 and 30%, respectively. The “Hepatotoxicity (granulomatous hepatitis)” value in data set [8] came to 1. Further, in [10], the “Hepatotoxicity (association with vascular disease)” value was 0. In data set [11], the “Hepatotoxicity (severe hepatitis)” value was 5. Besides, in data set [12], the “Hepatotoxicity (malignant tumour)” value was 0. Moreover, the “Hepatotoxicity (cytolytic)” value in [13] is reported as 9. Moreover, in [14], the “Hepatotoxicity (time to onset)” value was found to be 3 weeks - 12 years. In addition, in data set [16], the “Hepatotoxicity (steatosis)” value worked out at 10.
For the compound `CC(C)(Oc1ccc(CCNC(=O)c2ccc(Cl)cc2)cc1)C(=O)O` [BEZAFIBRATE], the “Hepatotoxicity (benign tumour)” value in [1] was determined as 0. Besides, the “Hepatotoxicity (acute)” value was found to be 2 in [2] and 0% in [15]. The “Hepatotoxicity (chronic liver disease)” value in data set [3] was determined as 0. Besides, the “Hepatotoxicity (cirrhosis)” value in [4] came out at 0. The “Hepatotoxicity (comment)” value in [5] is “I/PERHEXILINE”. For the same compound, in data set [6], the “Hepatotoxicity (choleostasis)” value amounted to 0. Besides, the “Hepatotoxicity (moderate)” value in data set [7] is 5; in data set [9] it was 10%. The “Hepatotoxicity (granulomatous hepatitis)” value in data set [8] was determined as 0. The “Hepatotoxicity (association with vascular disease)” value in [10] is 0. Moreover, the “Hepatotoxicity (severe hepatitis)” value in data set [11] amounted to 1. Further, in [12], the “Hepatotoxicity (malignant tumour)” value stood at 0. Also, in [13], the “Hepatotoxicity (cytolytic)” value is 1. The “Hepatotoxicity (time to onset)” value in data set [14] was determined as 3 weeks - 3 months. Moreover, the “Hepatotoxicity (steatosis)” value in data set [16] turned out to be 0.
Regarding `CCOc1ccc2ccccc2c1C(=O)N[C@@H]1C(=O)N2[C@@H]1SC(C)(C)[C@@H]2C(=O)O` [NAFCILLIN], the “Hepatotoxicity (benign tumour)” value in data set [1] is recorded as 0. The “Hepatotoxicity (acute)” value is 5 in data set [2] and 3.1% in [15]. Also, in data set [3], the “Hepatotoxicity (chronic liver disease)” value is reported as 0. Besides, the “Hepatotoxicity (cirrhosis)” value in [4] amounted to 0. Further, the “Hepatotoxicity (comment)” value in data set [5] is listed as “RC/OXACILLINE/CEFALOTINE”. For the same compound, in [6], the “Hepatotoxicity (choleostasis)” value is 3. Further, the figures for the “Hepatotoxicity (moderate)” value in data set [7] and in data set [9] were 4 and 25%, respectively. Also, in data set [8], the “Hepatotoxicity (granulomatous hepatitis)” value is 0. In addition, the “Hepatotoxicity (association with vascular disease)” value in [10] is recorded as 0. Further, in data set [11], the “Hepatotoxicity (severe hepatitis)” value came to 0. In data set [12], the “Hepatotoxicity (malignant tumour)” value is given as 0. The “Hepatotoxicity (cytolytic)” value in data set [13] is listed as 1. Also, in data set [14], the “Hepatotoxicity (time to onset)” value turned out to be 1 day - 2 weeks. In addition, the “Hepatotoxicity (steatosis)” value in data set [16] worked out at 0.
